In patent US7115741B2, “4-thieno[2,3-D]pyrimidin-4-YL piperazine compounds” (priority 2001, dated 2006):

These compounds were tested on platelet ADP receptors (assay: ARB binding assay (platelet ADP receptor binding, [3H]2-MeS-ADP)). Conditions: relative activities of selected compounds in the ARB binding assay.
Parameters: species or system human
Protocol: Utilizing the second assay the potency of inhibition of such compounds with respect to [^3H]2-MeS-ADP binding to whole platelets is determined. [^3H]2-MeS-ADP binding experiments are routinely performed with outdated human platelets collected by standard procedures at hospital blood banks. Apyrase-washed outdated platelets are prepared as follows (all steps at room temperature, if not indicated otherwise):
Outdated platelet suspensions are diluted with 1 volume of CGS and platelets pelleted by centrifugation at 1900×g for 45 minutes. Platelet pellets are resuspended at 3–6×10^9 platelets/ml in CGS containing 1 U/ml apyrase (grade V, Sigma, St. Louis, Mo.) and incubated for 15 minutes at 37° C. After centrifugation at 730×g for 20 minutes, pellets are resuspended in Hepes-Tyrode's buffer containing 0.1% BSA (Sigma, St. Louis, Mo.) at a concentration of 6.66×10^8 platelets/ml. Binding experiments are performed after >45 minutes resting of the platelets.
Alternatively, binding experiments are performed with fresh human platelets prepared as described in I.(Inhibition of ADP-Mediated Platelet Aggregation in vitro), except that platelets are resuspended in Hepes-Tyrode's buffer containing 0.1% BSA (Sigma, St. Louis, Mo.) at a concentration of 6.66×10^8 platelets/ml. Very similar results are obtained with fresh and outdated platelets.
A platelet ADP receptor binding assay using the tritiated potent agonist ligand [^3H]2-MeS-ADP (Jantzen, H. M. et al. (1999) Thromb. Hemost. 81:111–117) has been adapted to the 96-well microtiter format. In an assay volume of 0.2 ml Hepes-Tyrode's buffer with 0.1% BSA and 0.6% DMSO, 1×10^8 apyrase-washed platelets are preincubated in 96-well flat bottom microtiter plates for 5 minutes with serial dilutions of test compounds before addition of 1 nM [^3H]2-MeS-ADP ([^3H]2-methylthioadenosine-5′-diphosphate, ammonium salt; specific activity 48–49 Ci/mmole, obtained by custom synthesis from Amersham Life Science, Inc., Arlington Heights, Ill., or NEN Life Science Products, Boston, Mass.). Total binding is determined in the absence of test compounds. Samples for nonspecific binding may contain 10^−5 M unlabelled 2-MeS-ADP (RBI, Natick, Mass.). After incubation for 15 minutes at room temperature, unbound radioligand is separated by rapid filtration and two washes with cold (4–8° C.) Binding Wash Buffer (10 mM Hepes pH 7.4, 138 mM NaCl) using a 96-well cell harvester (Minidisc 96, Skatron Instruments, Sterling, Va.) and 8×12 GF/C glassfiber filtermats (Printed Filtermat A, for 1450 Microbeta, Wallac Inc., Gaithersburg, Md.). The platelet-bound radioactivity on the filtermats is determined in a scintillation counter (Microbeta 1450, Wallac Inc., Gaithersburg, Md.). Specific binding is determined by subtraction of non-specific binding from total binding, and specific binding in the presence of test compounds is expressed as % of specific binding in the absence of test compounds dilutions.
With CCc1cc2c(N3CCN(C(=O)[C@@H]4CCC[C@H](Cn5nnc6ccccc65)C4)CC3)ncnc2s1 [Example 279, (3-Benzotriazol-1-ylmethyl-cyclohexyl)-[4-(6-ethyl-thieno[2,3-d]pyrimidin-4-yl)-piperazin-1-yl]-methanone] the “Relative Activity” value was “+++ (<10 micromolar)”.
In the case of CCc1cc2c(N3CCN(C(=O)CCCCOc4ccccc4)CC3)ncnc2s1 [Example 305, 1-[4-(6-Ethyl-thieno[2,3-d]pyrimidin-4-yl)-piperazin-1-yl]-5-phenoxy-pentan-1-one], the “Relative Activity” value is reported as “+++ (<10 micromolar)”.
With CCc1cc2c(N3CCN(C(=O)c4ccncc4)CC3)ncnc2s1 [Example 362, [4-(6-Ethyl-thieno[2,3-d]pyrimidin-4-yl)-piperazin-1-yl]-pyridin-4-yl-methanone] the “Relative Activity” value was “+ (>20 micromolar)”.
With CCc1cc2c(N3CCN(C(=O)CCC(C)C)CC3)ncnc2s1 [Example 17, 1-[4-(6-ethylthiopheno[3,2-e]pyrimidin-4-yl)piperazinyl]-4-methylpentan-1-one] the “Relative Activity” value was “+++ (<10 micromolar)”.
With CCc1cc2c(N3CCN(C(=O)CCCNc4ncccn4)CC3)ncnc2s1 [Example 430, 1-[4-(6-Ethyl-thieno[2,3-d]pyrimidin-4-yl)-piperazin-1-yl]-4-(pyrimidin-2-ylamino)-butan-1-one] the “Relative Activity” value was “+ (>20 micromolar)”.
With CCc1cc2c(N3CCN(C(=O)CCCn4nnc5ccccc54)CC3)ncnc2s1 [Example 372, 4-Benzotriazol-1-yl-1-[4-(6-Ethyl-thieno[2,3-d]pyrimidin-4-yl)-piperazin-1-yl]-butan-1-one] the “Relative Activity” value was “++ (10–20 micromolar)”.
CCc1cc2c(N3CCN(C(=O)C=C(C(F)(F)F)C(F)(F)F)CC3)ncnc2s1 [Example 59, 1-[4-(6-ethylthopheno[3,2-e]pyrimidin-4-yl)pperazinyl]-4,4,4-trifluoro-3-(trifluoromethyl)but-2-en-1-one] was tested, and the “Relative Activity” value was “+ (>20 micromolar)”.
For CCc1cc2c(N3CCN(C(=O)CCCCNC(=O)c4ccccc4)CC3)ncnc2s1 [Example 313, N-{5-[4-(6-Ethyl-thieno[2,3-d]pyrimidin-4-yl)-piperazin-1-yl]-5-oxo-pentyl}-benzamide], the “Relative Activity” value was “++ (10–20 micromolar)”.
For O=C(Cc1ccccc1)N1CCN(c2ncnc3sc(Cc4ccccc4)cc23)CC1 [Example 112, 2-phenyl-1-{4-[6-benzylthiopheno[3,2-e]pyrimidin-4-yl]piperazinyl} ethan-1-one], the “Relative Activity” value was “+++ (<10 micromolar)”.
In the case of CCc1cc2c(N3CCN(C(=O)Cc4ccncc4)CC3)ncnc2s1 [Example 67, 1-[4-(6-ethylthiopheno[3,2-e]pyrimidin-4-yl)piperazinyl]-2-(4-pyridyl)ethan-1-one], the “Relative Activity” value is reported as “++ (10–20 micromolar)”.
With CCc1cc2c(N3CCN(C(=O)c4ccc5ccccc5n4)CC3)ncnc2s1 [Example 453, [4-(6-Ethyl-thieno[2,3-d]pyrimidin-4-yl)-piperazin-1-yl]-quinolin-2-yl-methanone] the “Relative Activity” value was “+ (>20 micromolar)”.
